Assay results taken from patent publication US20230139826A1 (NONO INC., priority 2020, published 2023).
Residues, ends and D or L forms follow the SMILES beside them.

How the values were obtained:
[1] = Plasma half-life in humans; assay type: in vivo; conditions: intravenous, 2.6 mg/kg, human, human equivalent concentrations
[2] = PK dose-separation study in cynomolgus macaques; assay type: in vivo, cynomolgus macaques (Macaca fascicularis); conditions: macaque
Procedure: We conducted further PK studies to probe the necessary dose-separation interval to mitigate degradation. These studies were conducted in cynomolgus macaques (Macaca fascicularis) to maximize their relevance to humans. Nerinetide was given as a 10-minute intravenous infusion at a dose of 2.6 mg/kg. This dosing regimen was neuroprotective in macaques exposed to stroke by LVO (Cook et al., Nature 483, 213-217 (2012)) and was used in both the Phase 2 ENACT trial (Lancet Neurol 11, 942-950 (2012)) and the ESCAPE-NA1 trial (Lancet 395, 878-887 (2020)). We examined the scenarios in which alteplase administration was started simultaneously with the nerinetide infusion start, at the end of the 10-minute nerinetide infusion, or 10 minutes after the end of nerinetide infusion. Alteplase (1 mg/kg) was administered through a separate intravenous line as a 10% bolus, followed by an infusion of the remaining 90% over 1 hour, as per its clinical use.

[3] = In-vivo pharmacokinetic analysis in rats; conditions: rat
Procedure: Since the effect of nerinetide in the ESCAPE-NA1 trial was negated by alteplase, we next evaluated the effects of alteplase on pharmacokinetics (PK) of nerinetide in rats. Alteplase was administered at 0.9 mg/kg (human dose) and at 5.4 mg/kg (6 times the human dose) in an infusion that simulated the clinical protocol (10% bolus followed by a 60 min infusion of the remainder). Nerinetide was administered as an intravenous bolus at the start of the alteplase infusion at 7.6 mg/kg.
The goal of these study was to evaluate nerinetide PK parameter changes when in the presence of circulating rt-PA and plasmin. Male naïve rats received an intravenous administration of either nerinetide alone, nerinetide plus rt-PA (0.9 mg/kg) or nerinetide plus rt-PA (5.4 mg/kg). Sample collection was performed pre-dose and 0 min, 5 min, 10 min, 20 min, 50 min post-dose. At each time point, approximately 300 uL of blood was sampled from each animal using a fresh syringe. Blood samples were collected in previously prepared Eppendorf tubes [30 ul of EDTA 2.5%] and centrifuged for 20 minutes to separate plasma and cell components.
Plasma samples were stored at −80° C. until analyzed.
Changes in peptide concentration were analyzed using a two-way repeated measures ANOVA, followed by the Sidak correction for multiple comparisons. The pharmacokinetic (PK) parameters of peak plasma concentration (Cmax) and the area under the plasma concentration-time curve from 0 to last measured concentration (AUC) were obtained with PKsolver Software (USA) using a non-compartmental analysis and employing a linear interpolation. For stroke studies, differences between groups were tested using a One-way ANOVA with a Tukey's correction for multiple comparisons. […] Values for animals experiencing premature death due to any reason including subarachnoid hemorrhage or hemorrhagic transformation were imputed to reflect the worst neurological score and the maximum stroke volume achieved across all animals.

[4] = alteplase started at the end of the nerinetide infusion
[5] = nerinetide 7.6 mg/kg iv bolus with alteplase 0.9 mg/kg (human dose)
[6] = nerinetide 7.6 mg/kg iv bolus with alteplase 5.4 mg/kg

CC[C@H](C)[C@H](NC(=O)[C@H](CO)NC(=O)[C@H](CO)NC(=O)[C@H](CC(C)C)NC(=O)[C@H](CCCCN)NC(=O)[C@H](CCCN=C(N)N)NC(=O)[C@H](CCCN=C(N)N)NC(=O)[C@H](CCCN=C(N)N)NC(=O)[C@H](CCC(N)=O)NC(=O)[C@H](CCCN=C(N)N)NC(=O)[C@H](CCCN=C(N)N)NC(=O)[C@H](CCCCN)NC(=O)[C@H](CCCCN)NC(=O)[C@H](CCCN=C(N)N)NC(=O)CNC(=O)[C@@H](N)Cc1ccc(O)cc1)C(=O)N[C@@H](CCC(=O)O)C(=O)N[C@@H](CO)C(=O)N[C@@H](CC(=O)O)C(=O)N[C@H](C(=O)O)C(C)C [Nerinetide] (H-YGRKKRRQRRRKLSSIESDV-OH)
half-life [1]: 5 to 10 min | degradation of Cmax or AUC by alteplase ([2]; alteplase 10 minutes after the end of the 10-min nerinetide infusion): eliminated degradation of Cmax or AUC | reduction in the AUC of nerinetide [2, 4]: 32.3% | reduction of the Cmax of nerinetide [2, 4]: 23.1% | reduction in the AUC of nerinetide ([2]; alteplase started simultaneously): 53.9% | reduction of the Cmax of nerinetide ([2]; nerinetide 2.6 mg/kg 10-minute infusion, alteplase 1 mg/kg started simultaneously): 47.4% | half-life ([3]; male, plasma, intravenous, 7.6 mg/kg, human equivalent concentrations): 5 to 10 min | change of AUC of nerinetide [3, 5]: non-significant reduction | change of Cmax of nerinetide [3, 5]: non-significant reduction | lowering of the mean AUC of nerinetide [3, 6]: 44% | lowering of the mean Cmax of nerinetide [3, 6]: 49.5%
